In this assay the target is T1, Hel a 6 (Helianthus annuus, UniProt A0A251RNJ1).
T1 construct: gene PLY2; natural protein purified from sunflower pollen
T1 sequence (A0A251RNJ1 23-394): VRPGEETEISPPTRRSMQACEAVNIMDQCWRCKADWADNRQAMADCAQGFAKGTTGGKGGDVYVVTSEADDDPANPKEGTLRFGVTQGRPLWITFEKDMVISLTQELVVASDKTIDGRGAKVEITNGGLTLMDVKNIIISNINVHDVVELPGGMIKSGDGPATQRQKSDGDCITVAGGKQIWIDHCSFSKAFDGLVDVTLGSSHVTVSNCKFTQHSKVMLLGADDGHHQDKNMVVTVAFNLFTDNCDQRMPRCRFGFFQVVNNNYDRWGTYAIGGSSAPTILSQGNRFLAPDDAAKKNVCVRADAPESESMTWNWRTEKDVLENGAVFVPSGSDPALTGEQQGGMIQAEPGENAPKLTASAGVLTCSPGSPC
Description: pectate lyase assay, A235 increase. The conditions noted are these: 10 mM salicylic acid; 0.2% polygalacturonic acid, 0.2 mM CaCl2, 25 mM Tris-HCl pH 8.0, 37 °C (methods; results say 40 °C). It is filed as biochemical.

As for `O=C(O)c1ccccc1O` [salicylic acid], the “pectate lyase assay, A235 increase” value is “the enzyme activity was ceased entirely when salicylic acid was added to the reaction mix”.
